Where “and” joins values, the source holds several entries; their conditions need not be identical. Identical values can stand only once.

Assay [1] has as its target hSTING(1–153)–mSTING(153–378) chimera (Homo sapiens, UniProt Q86WV6, A215V/A300E/A302V/A313V/A318T/A350V/D237N/D297E/D320G/E174G/E362R/E369D/G230I/G344N/H185L/H232R/I244V/K224M/K347M/K370Q/L189M/L202F/L222R/L247I/L333I/L346P/M214V/M357L/Q196R/Q276K/Q306R/R191S/R253P/S275A/S321N/S345A/S353P/T181M/T229N/T256V/T354P/T356V/V194G/V258I/V343M/V351A/Y182F/Y186H/Y274D). Kind of assay: ISRE reporter assay with STING co-transfection in HEK293T cells. It counts as cell-based, human/mouse. The following applies: for ISRE reporter activity, mean: h(1-153)/m(153-378)STING, Figure S1f. Background: Reporter assays use an easily measured gene product as a stand-in for the process of interest.

A further assay addresses human STING (WT) (Homo sapiens, UniProt Q86WV6). The assay is described as above. It counts as cell-based. To be noted: hSTING, Figure S1f.
For the next assay, the target named is human STING (Homo sapiens, UniProt Q86WV6, G230A/R293Q/R71H). Kind of assay: THP1-Dual ISRE-Luc reporter gene assay (primary screen and dose response). To be noted: for THP1-Dual reporter activity: single replicates (n=2); for AC50: THP1-Dual ISRE-Luc Assay.
human STING, sequence (Q86WV6 whole entry R71H/G230A/R293Q): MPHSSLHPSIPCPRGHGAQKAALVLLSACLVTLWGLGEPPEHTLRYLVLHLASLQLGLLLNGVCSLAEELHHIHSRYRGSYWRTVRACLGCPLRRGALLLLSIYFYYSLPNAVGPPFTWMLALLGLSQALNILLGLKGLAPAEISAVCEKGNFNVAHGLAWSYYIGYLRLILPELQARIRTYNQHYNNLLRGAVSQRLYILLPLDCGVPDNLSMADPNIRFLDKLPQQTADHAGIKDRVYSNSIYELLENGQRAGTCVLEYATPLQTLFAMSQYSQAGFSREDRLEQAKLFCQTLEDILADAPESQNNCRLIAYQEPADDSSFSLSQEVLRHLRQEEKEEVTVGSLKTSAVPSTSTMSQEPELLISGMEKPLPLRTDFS
The target of a further assay is STING(TMEM173) (Homo sapiens, UniProt Q86WV6, G230A/R293Q/R71H). Kind of assay: photoaffinity labeling and competition chemoproteomics in THP-1 cells. It counts as binding.
STING(TMEM173), sequence (Q86WV6 whole entry R71H/G230A/R293Q): as above
For the next assay, the target named is SYNE2 Nesprin-2 (Homo sapiens, UniProt Q8WXH0). The assay is described as above. It counts as binding.
Assay [2] has as its target TXNDC12 Thioredoxin domain-containing protein 12 (Homo sapiens, UniProt O95881). The description is as above. The assay is classed as binding.
The target of a further assay is RABL6 Rab-like protein 6 (Homo sapiens, UniProt Q3YEC7). The assay is described as above. The assay is classed as binding.
RABL6 Rab-like protein 6, sequence (Q3YEC7 whole entry): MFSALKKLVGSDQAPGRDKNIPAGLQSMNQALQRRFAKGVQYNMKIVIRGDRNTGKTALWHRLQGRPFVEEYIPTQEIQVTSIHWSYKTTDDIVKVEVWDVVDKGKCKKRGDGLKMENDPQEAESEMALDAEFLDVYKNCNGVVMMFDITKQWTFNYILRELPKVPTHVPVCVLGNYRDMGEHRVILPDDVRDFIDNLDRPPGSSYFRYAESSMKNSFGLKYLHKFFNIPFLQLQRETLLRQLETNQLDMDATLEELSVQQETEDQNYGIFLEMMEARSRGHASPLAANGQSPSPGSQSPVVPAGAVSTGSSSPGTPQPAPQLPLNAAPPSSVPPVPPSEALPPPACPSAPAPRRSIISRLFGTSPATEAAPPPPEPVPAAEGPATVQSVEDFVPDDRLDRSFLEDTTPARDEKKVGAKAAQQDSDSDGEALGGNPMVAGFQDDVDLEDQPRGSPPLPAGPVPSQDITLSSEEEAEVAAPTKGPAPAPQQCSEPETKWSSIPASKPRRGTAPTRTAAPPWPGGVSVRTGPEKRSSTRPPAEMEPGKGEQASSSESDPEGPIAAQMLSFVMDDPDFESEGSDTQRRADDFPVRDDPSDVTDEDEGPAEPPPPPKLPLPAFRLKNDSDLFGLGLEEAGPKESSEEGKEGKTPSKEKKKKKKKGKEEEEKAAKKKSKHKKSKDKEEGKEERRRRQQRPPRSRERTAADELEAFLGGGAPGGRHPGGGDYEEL
In assay [3] the target is SLC25A13 Calcium-binding mitochondrial carrier protein Aralar2 (Homo sapiens, UniProt Q9UJS0). The assay is described as above.
SLC25A13 Calcium-binding mitochondrial carrier protein Aralar2, sequence (Q9UJS0 whole entry): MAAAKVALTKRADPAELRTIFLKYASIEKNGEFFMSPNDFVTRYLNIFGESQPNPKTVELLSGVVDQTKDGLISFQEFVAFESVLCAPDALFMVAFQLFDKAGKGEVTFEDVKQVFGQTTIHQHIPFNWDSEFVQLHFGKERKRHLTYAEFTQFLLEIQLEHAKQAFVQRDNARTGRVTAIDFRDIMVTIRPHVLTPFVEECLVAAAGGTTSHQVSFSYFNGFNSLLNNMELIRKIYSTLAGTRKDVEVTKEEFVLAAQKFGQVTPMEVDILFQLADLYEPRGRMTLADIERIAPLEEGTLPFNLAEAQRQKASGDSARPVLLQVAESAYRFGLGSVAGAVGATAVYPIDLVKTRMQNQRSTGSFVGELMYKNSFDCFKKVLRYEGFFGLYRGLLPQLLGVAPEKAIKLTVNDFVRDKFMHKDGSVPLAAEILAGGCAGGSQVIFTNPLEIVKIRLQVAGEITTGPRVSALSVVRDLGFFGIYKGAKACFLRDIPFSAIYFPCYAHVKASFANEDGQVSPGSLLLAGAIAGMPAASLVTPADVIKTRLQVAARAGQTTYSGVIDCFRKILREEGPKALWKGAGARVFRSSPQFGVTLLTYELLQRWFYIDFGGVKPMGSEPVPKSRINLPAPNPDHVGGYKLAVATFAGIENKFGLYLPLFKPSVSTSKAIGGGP
Assay [4] deals with BMDM, human STING knock-in. Briefly: IP10 induction in bone marrow-derived macrophages. It counts as cell-based, mouse. The following applies: 50μM, n=1.
The next assay has as its system BMDM, WT mSTING. Briefly: IP10 induction in bone marrow-derived macrophages. It counts as cell-based, mouse. To be noted: 50μM, n=1.
Another assay has as its system BMDM, mSTING Indel/Indel. Kind of assay: IP10 induction in bone marrow-derived macrophages. The assay is classed as cell-based, mouse. The following applies: 50μM, n=1.

human STING (WT), sequence (Q86WV6 whole entry): as the sequence (Q86WV6 whole entry R71H/G230A/R293Q) above, with H71R, A230G, Q293R counted along it
hSTING(1–153)–mSTING(153–378) chimera, sequence (Q86WV6 with tags, fused parts or gaps with the stated changes): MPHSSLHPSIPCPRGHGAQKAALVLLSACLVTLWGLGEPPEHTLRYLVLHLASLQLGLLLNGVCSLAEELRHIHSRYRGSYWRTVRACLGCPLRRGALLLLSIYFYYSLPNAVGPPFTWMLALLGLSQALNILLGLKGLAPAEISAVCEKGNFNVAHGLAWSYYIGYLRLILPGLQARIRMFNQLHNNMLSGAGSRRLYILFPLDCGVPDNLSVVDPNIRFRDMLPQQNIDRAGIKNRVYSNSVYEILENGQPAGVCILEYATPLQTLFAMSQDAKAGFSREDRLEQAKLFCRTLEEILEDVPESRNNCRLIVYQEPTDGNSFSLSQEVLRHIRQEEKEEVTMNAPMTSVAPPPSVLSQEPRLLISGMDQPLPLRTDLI
TXNDC12 Thioredoxin domain-containing protein 12, sequence (O95881 27-172): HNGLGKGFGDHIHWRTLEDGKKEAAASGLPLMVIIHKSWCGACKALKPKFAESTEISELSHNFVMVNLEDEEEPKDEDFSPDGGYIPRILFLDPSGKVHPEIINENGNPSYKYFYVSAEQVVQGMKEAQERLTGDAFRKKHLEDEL

For the molecule `Cc1ccc2c(=O)c3cccc(CC(=O)O)c3oc2c1C` [DMXAA, 5,6-dimethylxanthenone-4-acetic acid, reference compound], the “ISRE reporter activity, mean” value in assay [1] (Log[μM] 0) worked out at 0.7; in assay [1] (Log[μM] 0.3), 0.7; in assay [1] (Log[μM] 0.6), 0.7; in assay [1] (Log[μM] 0.9) it was 0.9; in [1] (Log[μM] 1.2), 9.4; in assay [1] (Log[μM] 1.5) it was 82.5. The “ISRE reporter activity, mean” value in [1] (Log[μM] 1.8) turned out to be 101.1; in [1] (Log[μM] 2.1) it was 106.7; in assay [1] (Log[μM] 2.4), 109.5; at human STING (WT) (Log[μM] 0), 1.3; at human STING (WT) (Log[μM] 0.3), 1.4; on human STING (WT) (Log[μM] 0.6), 1.2. The “ISRE reporter activity, mean” value is given as 1.3 on human STING (WT) (Log[μM] 0.9); 1 on human STING (WT) (Log[μM] 1.2); 1.6 on human STING (WT) (Log[μM] 1.5); 1.2 at human STING (WT) (Log[μM] 1.8); 1.4 on human STING (WT) (Log[μM] 2.1); 1.5 at human STING (WT) (Log[μM] 2.4). For the same molecule, the “ISRE reporter activity, mean” value on human STING (WT) (Log[μM] 2.7) is 1.9. Further, the “STING activation in words” value in assay [1] (hSTING TMD–mSTING LBD chimera) is listed as “responded fully”.
By AC50 is commonly meant the concentration giving half of the maximal activity seen. A lower AC50 goes with greater potency. Regarding `CNc1ccccc1CS(=O)(=O)NC(=O)c1ccc(NCc2ccc(C3(C(C)(C)C)OCC(C)(C)CO3)cc2)c(OC)c1` [NVS-STG3], the THP1-Dual reporter activity is -1.082 and 21.604 at human STING (97.7 nM); -3.144 and -12.05 at human STING (195 nM); -15.339 and 25.944 at human STING (391 nM); 62.36 and 63.63 at human STING (781 nM); 1502.2 and 1735.82 at human STING (1563 nM); 6139.8 and 5609.9 at human STING (3125 nM). The THP1-Dual reporter activity is 8825.5 and 7956 at human STING (6250 nM); 8733.31 and 7877.19 on human STING (12500 nM). Besides, at human STING, half-maximal activity (AC50) was put at 2.7 µM. For the same molecule, the “competition of NVS-STG4 labeling in words” value at STING(TMEM173) (20 μM competitor, 1 μM NVS-STG4) was “competed”.
Turning to `C#CCCC1(CCC(=O)NCCCS(=O)(=O)NC(=O)c2ccc(NCc3ccc(C4(C(C)(C)C)OCC(C)(C)CO4)cc3)c(OC)c2)N=N1` [NVS-STG4], the “Abundance Ratio (log2): (DMSO) / (NJC652)” value was 0.26 on SYNE2 Nesprin-2; -0.18 in [2]; 0.01 on RABL6 Rab-like protein 6; -0.21 in assay [3]; -1.82 at STING(TMEM173) (TMEM173). The THP1-Dual reporter activity was -53.887 and -41.218 on human STING (97.7 nM); -52.59 and -42.841 at human STING (195 nM); -38.43 and -29.964 at human STING (391 nM); -39.736 and -25.431 on human STING (781 nM); -32.277 and -48.463 on human STING (1563 nM); -20.873 and -28.245 at human STING (3125 nM). Besides, the THP1-Dual reporter activity was 1623.13 and 1111.27 on human STING (6250 nM); 4114.59 and 3953.84 at human STING (12500 nM); 2243.38 and 2653.78 on human STING (25000 nM). The molecule further displayed an AC50 at human STING of 6.9 µM. Moreover, on STING(TMEM173) (1 μM probe, pull-down), the “enrichment of STING(TMEM173) over no probe control” value was “over 2 fold”.
As to `Nc1nc2c(ncn2[C@@H]2O[C@@H]3COP(=O)(O)O[C@H]4[C@@H](O)[C@H](n5cnc6c(N)ncnc65)O[C@@H]4COP(=O)(O)O[C@@H]2[C@@H]3O)c(=O)[nH]1` [cGAMP, 2’,3’-cGMP-AMP, reference compound], the IP10 was determined as 2945 pg/mL in [4] (BMDM hSTING+/+); 1331.5 pg/mL in assay [4] (BMDM hSTING+/indel); 3440.25 pg/mL in the assay with BMDM, WT mSTING; 0 pg/mL in the assay on BMDM, mSTING Indel/Indel.

The values above are taken from paper PMC10907298 (Nature chemical biology, 2023).
